Measured values as given in patent US6136817A, “Opioid receptor antagonist compounds” (Astra AB, priority 1994, dated 2000).
Where a name gives a salt, the structure may show the parent alone.

Target: T1, δ opioid receptors (Mus musculus, UniProt P32300)
T1 construct: antagonism of the delta-selective agonist DPDPE
Assay: opioid antagonism against receptor selective agonists (DAMGO, μ; Cl 977, κ; DPDPE, δ) in electrical stimulated guinea-pig ileum (GPI) and mouse vas deferens (MVD) preparations
Format: cell-based
Description: δ-Antagonism was assessed using the electrical stimulated guinea-pig ileum longitudinal muscle preparation (GPI; containing μ and κ opioid receptors) and mouse vas deferens preparation (MVD; containing μ, κ and δ opioid receptors) (H. Schmidhammer et al., J. Med. Chem., Vol. 32: 418-421, 1989; H Schnmidhammer et al., J. Med. Chem., Vol. 33:1200-1206,1990). The activity of the compound 1 of the Examples for inhibiting the suppression of contraction of the organs by three receptor selective agonists (DAMGO, μ; Cl 977, κ; DPDPE, δ) was measured.

T1 sequence (P32300 whole entry): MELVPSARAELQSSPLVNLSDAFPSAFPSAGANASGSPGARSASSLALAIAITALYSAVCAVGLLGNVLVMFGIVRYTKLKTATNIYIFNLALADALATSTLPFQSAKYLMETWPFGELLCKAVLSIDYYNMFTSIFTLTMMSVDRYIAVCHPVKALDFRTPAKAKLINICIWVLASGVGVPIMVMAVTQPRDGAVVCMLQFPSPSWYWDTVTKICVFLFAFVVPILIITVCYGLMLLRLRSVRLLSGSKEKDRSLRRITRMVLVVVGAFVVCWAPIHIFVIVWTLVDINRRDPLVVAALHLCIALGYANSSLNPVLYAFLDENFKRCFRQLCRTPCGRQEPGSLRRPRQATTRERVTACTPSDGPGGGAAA

## CCO[C@@]12Cc3c([nH]c4ccccc34)[C@]3(C)Oc4c(O)ccc5c4[C@@]31CCN(CC1CC1)[C@@H]2C5 [compound 1, 17-(Cyclopropylmethyl)-6,7-dehydro-4,5α-epoxy-14-ethoxy-3-hydroxy-5-methyl-6,7-2',3'-indolomorphinan hydrochloride]
GPI and MVD preparations, agonists DAMGO (μ), Cl 977 (κ), DPDPE (δ)
  opioid antagonism (inhibiting the suppression of contraction of the organs by receptor selective agonists): δ-selective opioid antagonism
Antagonism of Cl 977 (κ) vs DPDPE (δ)
  κ/δ selectivity ratio: very good
Antagonism of DAMGO (μ) vs DPDPE (δ)
  μ/δ selectivity ratio: very good
